Counter-ions that a name gives are not always drawn. Like-named read-outs stand apart in the source and are kept apart here. Non-standard residues stand in square brackets, D forms with d. Residues, ends and D or L forms follow the SMILES beside them. d2Nal = N[C@H](Cc1ccc2ccccc2c1)C(=O)O; pGlu = O=C1CC[C@@H](C(=O)O)N1
Tests used:
[1] = pH 7.4
[2] = Stability in aqueous media (PBS pH 7.4); type: physicochemical; set-up: unit not given here; settings: phosphate buffer solution (PBS); PBS pH 7.4, 37° C., samples at T=0, 4, 24, 96 h; read-out: Stability grading (t1/2)
Description: LC/MS data was collected for compound identity.

GnRHR = molecular target: T1, GnRHR (Homo sapiens, UniProt P30968); test: Calcium assay in CHO-K1 cells (Genscript), FLIPR; type: cell-based; settings: CHO-K1/GnRHR/Ga15 cells, relative to agonist control, read-out: GNRHR Stimulation at 1 μM
T1 construct: host or cells: CHO-K1 (CHO-K1/GnRHR/Ga15)
T1 sequence (P30968 1-328): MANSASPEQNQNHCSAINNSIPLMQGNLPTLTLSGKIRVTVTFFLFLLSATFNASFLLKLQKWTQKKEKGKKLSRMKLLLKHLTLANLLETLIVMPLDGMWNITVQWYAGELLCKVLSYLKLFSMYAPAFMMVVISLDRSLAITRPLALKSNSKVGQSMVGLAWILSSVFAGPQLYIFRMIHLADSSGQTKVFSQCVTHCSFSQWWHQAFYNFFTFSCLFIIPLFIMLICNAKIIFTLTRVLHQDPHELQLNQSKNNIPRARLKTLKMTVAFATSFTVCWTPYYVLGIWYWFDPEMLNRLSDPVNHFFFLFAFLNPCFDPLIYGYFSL

[3] = Solubility in PBS (LC/UV AUC trend); settings: PBS pH 7.4, 0.2 mg/ml; rating 1 (good) to 5 (poor)
T cells = test: Immune stimulation assay: MHC class I expression on T cells (PBMCs, flow cytometry); type: cell-based, human; settings: PBMCs from a healthy donor, with IL-2, 72 hours
Experimental: FIG. 1: Expression of MHC class I after stimulation of T cells with increasing concentrations of GnRH II. PBMCs from a healthy donor was stimulated with GnRH II and IL-2 for 72 hours. Data points represent mean fluorescent intensity of MCH class I expression on CD4^+ T cells (blue triangles) or CD8^+ T cells (black squares) measured with flow cytometry.
(black). […] Data points represent mean fluorescent intensity of MCH class I expression on CD4^+ T cells (A) or CD8^+ T cells (B) measured with flow cytometry.
Human peripheral blood mononuclear cells (PBMCs) were purified from healthy donors with Ficoll-Hypaque density centrifugation. Cells were cultured in RPMI-1640 medium (Invitrogen) supplemented with 10% fetal bovine serum, 100 […], 100 μg/mL streptomycin and IL-2 (100 U/mL) for 72 hours in 37° C., 5% CO2.

| SMILES | Solubility grading [1] | half-life at 0.2 mg/ml [2] | activation at 1 µM (GnRHR) | Solubility grading [3] | MHC class I expression on T cells (T cells) |
| --- | --- | --- | --- | --- | --- |
| CCNC(=O)[C@@H]1CCCN1C(=O)[C@H](CCCNC(=N)N)NC(=O)[C@H](CC(C)C)NC(=O)[C@@H](CC(C)C)NC(=O)[C@H](Cc1ccc(O)cc1)NC(=O)[C@H](CO)NC(=O)[C@H](Cc1c[nH]c2ccccc12)NC(=O)[C@H](Cc1c[nH]cn1)NC(=O)[C@@H]1CCC(=O)N1 [Leuprorelin acetate] | 2 |  |  |  |  |
| CC(C)C[C@H](NC(=O)[C@@H](Cc1c[nH]c2ccccc12)NC(=O)[C@H](Cc1c[nH]cn1)NC(=O)[C@H](CO)NC(=O)[C@H](Cc1c[nH]c2ccccc12)NC(=O)[C@H](Cc1c[nH]cn1)NC(=O)[C@@H]1CCC(=O)N1)C(=O)N[C@@H](CCCNC(=N)N)C(=O)N1CCC[C@H]1C(=O)NCC(N)=O [Compound 68, pGlu-His-Trp-Ser-His-D-Trp-Leu-Arg-Pro-Gly-amide] ([pGlu]HWSH[dW]LRPG-NH2) |  | > 96 | 86% | 1 |  |
| N=C(N)NCCC[C@H](NC(=O)[C@H](Cc1c[nH]c2ccccc12)NC(=O)[C@@H](Cc1c[nH]c2ccccc12)NC(=O)[C@H](Cc1ccc(O)cc1)NC(=O)[C@H](CO)NC(=O)[C@H](Cc1c[nH]c2ccccc12)NC(=O)[C@H](Cc1c[nH]cn1)NC(=O)[C@@H]1CCC(=O)N1)C(=O)N1CCC[C@H]1C(=O)NCC(N)=O [Compound 66, pGlu-His-Trp-Ser-Tyr-D-Trp-Trp-Arg-Pro-Gly-amide] ([pGlu]HWSY[dW]WRPG-NH2) |  | > 96 | 83% | 5 |  |
| CCNC(=O)[C@@H]1CCCN1C(=O)[C@H](CCCNC(=N)N)NC(=O)[C@H](CC(C)C)NC(=O)[C@@H](CC(C)C)NC(=O)[C@H](Cc1ccc(O)cc1)NC(=O)[C@H](CO)NC(=O)[C@H](Cc1c[nH]c2ccccc12)NC(=O)[C@H](Cc1c[nH]cn1)NC(=O)[C@@H]1CCC(=O)N1 [Leuprorelin TFA] | 1 |  |  |  |  |
| NC(=O)CNC(=O)[C@@H]1CCCN1C(=O)[C@H](Cc1ccc(O)cc1)NC(=O)[C@H](Cc1c[nH]c2ccccc12)NC(=O)[C@@H](Cc1ccc2ccccc2c1)NC(=O)[C@H](Cc1ccc(O)cc1)NC(=O)[C@H](CO)NC(=O)[C@H](Cc1c[nH]c2ccccc12)NC(=O)[C@H](Cc1c[nH]cn1)NC(=O)[C@@H]1CCC(=O)N1 [Compound 30, pGlu-His-Trp-Ser-Tyr-D-Nal-Trp-Tyr-Pro-Gly-amide] ([pGlu]HWSY[d2Nal]WYPG-NH2) |  | < 96 | 12% | 1 |  |
| NC(=O)CNC(=O)[C@@H]1CCCN1C(=O)[C@H](Cc1ccc(O)cc1)NC(=O)[C@H](Cc1c[nH]c2ccccc12)NC(=O)CNC(=O)[C@H](Cc1c[nH]cn1)NC(=O)[C@H](CO)NC(=O)[C@H](Cc1c[nH]c2ccccc12)NC(=O)[C@H](Cc1c[nH]cn1)NC(=O)[C@@H]1CCC(=O)N1 [GnRH II] ([pGlu]HWSHGWYPG-NH2) |  |  |  |  | directly activates these cells |
| CCNC(=O)[C@@H]1CCCN1C(=O)[C@H](Cc1ccc(O)cc1)NC(=O)[C@H](Cc1c[nH]c2ccccc12)NC(=O)[C@@H](CC(C)C)NC(=O)[C@H](Cc1c[nH]cn1)NC(=O)[C@H](CO)NC(=O)[C@H](Cc1c[nH]c2ccccc12)NC(=O)[C@H](Cc1c[nH]cn1)NC(=O)[C@@H]1CCC(=O)N1 [Compound 50, pGlu-His-Trp-Ser-His-D-Leu-Trp-Tyr-Pro-NHEt] ([pGlu]HWSH[dL]WYP-NHEt) |  | > 96 | 105% | 1 |  |
| CCNC(=O)[C@@H]1CCCN1C(=O)[C@H](CCCNC(=N)N)NC(=O)[C@H](CC(C)C)NC(=O)[C@@H](Cc1cn(Cc2ccccc2)cn1)NC(=O)[C@H](Cc1ccc(O)cc1)NC(=O)[C@H](CO)NC(=O)[C@H](Cc1c[nH]c2ccccc12)NC(=O)[C@H](Cc1cnc[nH]1)NC(=O)[C@@H]1CCC(=O)N1 [Histrelin acetate] | 4 |  |  |  |  |
| N=C(N)NCCC[C@H](NC(=O)[C@H](Cc1c[nH]c2ccccc12)NC(=O)[C@@H](Cc1ccc2ccccc2c1)NC(=O)[C@H](Cc1c[nH]cn1)NC(=O)[C@H](CO)NC(=O)[C@H](Cc1c[nH]c2ccccc12)NC(=O)[C@H](Cc1c[nH]cn1)NC(=O)[C@@H]1CCC(=O)N1)C(=O)N1CCC[C@H]1C(=O)NCC(N)=O [Compound 27, pGlu-His-Trp-Ser-His-D-Nal-Trp-Arg-Pro-Gly-amide] ([pGlu]HWSH[d2Nal]WRPG-NH2) |  | > 96 | 108% | 1 |  |
| CCNC(=O)[C@@H]1CCCN1C(=O)[C@H](CCCNC(=N)N)NC(=O)[C@H](CC(C)C)NC(=O)[C@@H](Cc1cn(Cc2ccccc2)cn1)NC(=O)[C@H](Cc1ccc(O)cc1)NC(=O)[C@H](CO)NC(=O)[C@H](Cc1c[nH]c2ccccc12)NC(=O)[C@H](Cc1cnc[nH]1)NC(=O)[C@@H]1CCC(=O)N1 [Histrelin TFA] | 2 |  |  |  |  |
